A word on the IC50: it is the concentration that gives 50% inhibition. Read a high IC50 as weaker potency.

The record followed here is US20250042920A1 (OCEAN UNIVERSITY OF CHINA, priority 2021, published 2025).

Experiment [1] concerns STZ+ high-fat fed type 2 diabetic Kunming mice. Briefly: Hypoglycemic test in STZ+ high-fat fed diabetic mouse model. It is filed as in vivo. As to conditions: for blood glucose: gavage, 8 weeks (FIG. 1). The protocol: A total of 50 male Kunming mice were fed in a constant temperature of 25° C. with free access to food and water. After 5 days of adaptive feeding, the mice were divided into two groups for the first time. The first group (n=10) was the blank group (C) fed with normal diet, and the rest were the second group (n=40) fed with 60% high-fat diet to induce high-fat model and free access to water for 4 weeks. At the fifth week, the mice in the second group were injected with streptozotocin (STZ) to induce type 2 diabetes model. The total injection dose was 150 mg/kg, and the feeding conditions were unchanged. Type 2 diabetic mice with blood glucose levels higher than 11 mmol/L were divided into model group (M, n=10) and […]. Distilled water), metformin group (Meft, 225 mg/kg/d), compound 12 low-dose group (2A-L, 50 mg/kg/d), compound 12 high-dose group (2A-H, 100 mg/kg/d). The […] in group M were given distilled water by gavage every morning, and the dosage was Meft: 225 mg/kg. 2A-L: 50 mg/kg; 2A-H: 100 mg/kg. The mice were administrated by gavage at a dose of […] for 8 weeks, and the body weight and fasting blood glucose were measured regularly during the period.

The target in experiment [2] is MNK2 (Homo sapiens, UniProt Q9HBH9). Briefly: MNK2 kinase inhibition assay (LANCE Ultra kinase activity assay, PerkinElmer). It is filed as biochemical. As to conditions: 100 μM ATP; for IC50: five concentrations 10000-1 nM; for inhibition at 1 µM: inhibition rate at 1000 nM compound, 60 min, 25° C., read-out: Inhibitory activity(1 μM) MNK2. The procedure:
(§1) MNK1 and MNK2 kinase inhibition assays were performed using LANCE Ultra kinase activity assay developed by PerkinElmer. […] The test steps are as follows: At 25° C., 1.00 ng MNK1 or 0.05 ng MNK2 was prepared with different concentrations (10000, 1000, 100, 10, 1 nM) of the tested compound to form a total volume of 10 μL reaction mixture (MNK1: 12.5 nM CREB, 450 μM ATP, 2 mM DTT, 1× buffer; MNK2: 12.5 nM CREB, 100 μM ATP, 2 mM DTT, 1×buffer), and incubation for 60 min. The reaction was terminated by adding 5 μL EDTA/Detection buffer and 5 μL Eu-CREB/Detection buffer. The ratio of HTRF signals at 615 nm and 665 nm was detected after 60 min of incubation. The inhibition rate was calculated by measuring the compounds at 1000 nM.
(§2) Then five different concentrations (10000, 1000, 100, 10, 1 nM) of the tested compounds were measured, and the IC50 value was calculated according to the inhibition rate fitting curve.

Experiment [3] has as its system C57BL/6J male mice, high-fat diet obesity model. Briefly: Weight loss trial in a high-fat feeding obesity model. It is filed as in vivo. As to conditions: obese C57BL/6J mice; 50 or 100 mg/kg daily gavage; after 1 month of treatment. The procedure: C57BL/6J male mice were fed with high-fat diet (60 kcal %) and low-fat diet (10 kcal %), respectively. After 16 weeks, the obesity model was successfully established (the body weight of high-fat diet was higher than 20% of the body weight of low-fat diet). They were divided into blank group, 12 high dose group (100 mg/kg), 12 low dose group (50 mg/kg) and orlistat group (50 mg/kg). The mice in the control group were given normal saline as the control, and the daily afternoon gavage of the drug for 4 weeks.

The target of experiment [4] is MNK1 (Homo sapiens, UniProt Q9BUB5). As to the kind of experiment: MNK1 kinase inhibition assay (LANCE Ultra kinase activity assay, PerkinElmer). It is filed as biochemical. The note with it: 450 μM ATP; for IC50: five concentrations 10000-1 nM; for inhibition at 1 µM: inhibition rate at 1000 nM compound, 60 min, 25° C., read-out: Inhibitory activity(1 μM) MNK1. The procedure: as §1, §2
A general note: Time-resolved FRET reads energy transfer from a long-lived donor to a nearby acceptor.

For experiment [5], the system named is male db/db mice. Briefly: Insulin tolerance and liver function improvement test in male db/db mouse model. It is filed as in vivo. The procedure: Six-week-old male db/db mice were randomly divided into 6 groups of 12 mice in each group: Model group (M, distilled water), metformin group (Meft, 200 mg/kg/d), lovastatin group (6 mg/kg), compound 12 low dose group (20 mg/kg/d), compound 12 middle dose group (40 mg/kg/d), compound 12 high dose group (80 mg/kg/d). They were raised in a constant temperature of 25° C. and fed and drinking freely. The mice were administrated by gavage at a dose of […] for 6 weeks, and the body weight and fasting blood glucose were measured regularly during the period.
Insulin tolerance test (ITT) was performed with […] (1.0 U/ml, 1.0 U/kg) and fasting for 4 hours in the morning. In the afternoon experiment, weight was weighed, blood glucose was measured before insulin injection, insulin injection volume was calculated according to body weight, and blood glucose was measured at 15 min, 30 min, 45 min, and 60 min. At the end of the experiment, each cage was supplemented with feed.

The mark [6] stands for this setting: compared with the model group (FIG. 3).
[7] abbreviates: high-dose group (80 mg/kg/d) vs model group (FIG. 5).

A value given as a limit tells only on which side of the number the result lay.

MNK1, sequence (Q9BUB5 whole entry): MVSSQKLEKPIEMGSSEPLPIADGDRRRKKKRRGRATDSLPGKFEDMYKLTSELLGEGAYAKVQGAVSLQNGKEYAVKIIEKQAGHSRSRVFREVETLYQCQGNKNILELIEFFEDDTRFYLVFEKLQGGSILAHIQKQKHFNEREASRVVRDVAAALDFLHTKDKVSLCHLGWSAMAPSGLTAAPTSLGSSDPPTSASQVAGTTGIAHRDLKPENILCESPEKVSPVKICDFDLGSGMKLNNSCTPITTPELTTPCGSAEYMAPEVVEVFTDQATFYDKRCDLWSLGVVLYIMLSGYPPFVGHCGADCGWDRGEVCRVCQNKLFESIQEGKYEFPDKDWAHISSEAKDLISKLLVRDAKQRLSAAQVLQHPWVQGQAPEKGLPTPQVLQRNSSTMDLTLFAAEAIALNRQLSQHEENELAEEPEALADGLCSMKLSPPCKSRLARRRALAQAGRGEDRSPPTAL
MNK2, sequence (Q9HBH9 whole entry): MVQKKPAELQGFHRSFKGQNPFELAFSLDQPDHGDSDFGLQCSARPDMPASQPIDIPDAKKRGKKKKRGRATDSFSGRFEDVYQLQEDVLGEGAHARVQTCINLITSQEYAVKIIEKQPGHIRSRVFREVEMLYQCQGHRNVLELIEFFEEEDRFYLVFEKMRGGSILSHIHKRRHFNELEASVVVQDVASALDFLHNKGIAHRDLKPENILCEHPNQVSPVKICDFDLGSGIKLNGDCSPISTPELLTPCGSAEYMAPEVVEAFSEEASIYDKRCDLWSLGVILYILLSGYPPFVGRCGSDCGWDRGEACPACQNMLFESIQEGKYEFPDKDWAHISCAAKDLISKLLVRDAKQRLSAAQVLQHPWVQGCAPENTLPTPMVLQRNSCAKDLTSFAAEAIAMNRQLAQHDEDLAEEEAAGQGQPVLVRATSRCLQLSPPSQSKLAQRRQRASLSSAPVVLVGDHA

For the molecule `CN(C)C1CCN(C(=O)c2ccc(-c3nn4c(-c5ccc(C#N)cc5)cnc4s3)cc2)CC1` [Compound 12, 4-(2-(4-(4-(dimethylamino)piperidine-1-carbonyl)phenyl)imidazo[2,1-b][1,3,4]thiadiazol-5-yl)benzonitrile], in experiment [1] (50 and 100 mg/kg/d (FIG. 2)), the glucose tolerance entry was “improved”. Moreover, in experiment [1] (FIG. 3), the “serum AST levels” value was “significantly reduced”. Besides, in experiment [1] (after administration, vs model group (FIG. 3)), the “serum creatinine (CREA)” value is listed as “decreased significantly”. Moreover, in experiment [1] (setting [6]), the “serum TC” value is reported as “significantly decreased” and the “serum TG” value is recorded as “significantly decreased”. In addition, in experiment [1] (high dose group 100 mg/kg/d), the “hypoglycemic effect compared with positive control (metformin, 225 mg/kg)” value is on record as “better hypoglycemic effect than the positive control” and the blood glucose entry is recorded as “significantly reduced”. Also, the “insulin sensitivity (insulin tolerance test)” value in experiment [1] (low and high dose groups vs model group, after intraperitoneal insulin (FIG. 2)) is “restored insulin sensitivity”. Besides, in experiment [1] (low dose group 50 mg/kg/d), the “hypoglycemic effect compared with positive control (metformin, 225 mg/kg)” value is on record as “equivalent to that of the positive control group” and the blood glucose result is recorded as “significantly reduced”. In addition, the “reduction of TC compared with metformin” value in experiment [1] (metformin 225 mg/kg/d) is listed as “even better than metformin”. Further, in experiment [2], the IC50 was under 50 nM and the inhibition at 1 µM is over 75%. The body weight result in experiment [3] was “decreased significantly”. Also, in experiment [4], the IC50 is under 50 nM and the inhibition at 1 µM is over 75%. Moreover, the “blood levels of GLP-1” value in experiment [5] (FIG. 6) is “Increased”. Moreover, in experiment [5] (after high dose administration (FIG. 6)), the “serum content of insulin INS” value was “significantly increased”. Besides, in experiment [5] (at low doses (FIG. 6)), the “inflammatory cytokine IL-6” value is reported as “significantly decreased”, the “inflammatory cytokine TNF” value is “significantly decreased” and the “plasma BNP” value is given as “significantly decreased”. Moreover, in experiment [5] (db/db mice, gavage 6 weeks, each drug group, especially 12 high-dose group (80 mg/kg/d) (FIG. 4)), the “insulin sensitivity (insulin tolerance test, ITT)” value is reported as “significantly improved”. For the same molecule, in experiment [5] (setting [7]), the “serum ALT” value was “significant decreases”, the “serum AST” value is recorded as “significant decreases” and the “serum total bile acid content” value is “significant decreases”.
`COc1ccc(-c2cnc3sc(-c4ccc(C(=O)N5CCC(N(C)C)CC5)cc4)nn23)cc1` [Compound 15, (4-(dimethylamino)piperidin-1-yl)(4-(5-(4-methoxyphenyl)imidazo[2,1-b][1,3,4]thiadiazol-2-yl)phenyl)methanone]: in experiment [2], the IC50 is under 50 nM and the inhibition at 1 µM was over 75%. In experiment [4], the IC50 is under 50 nM and the inhibition at 1 µM was over 75%.
Take `CN1CCN(C(=O)c2ccc(-c3nn4c(-c5ccc(C#N)cc5)cnc4s3)cc2)CC1` [Compound 17, 4-(2-(4-(4-methylpiperazine-1-carbonyl)phenyl)imidazo[2,1-b][1,3,4]thiadiazol-5-yl)benzonitrile]: the IC50 in experiment [2] and in experiment [4] was under 50 nM throughout. Further, the inhibition at 1 µM in experiment [2] and in experiment [4] was over 75% throughout.
In the case of `N#Cc1ccc(-c2cnc3sc(-c4ccc(C(=O)NCCCO)cc4)nn23)cc1` [Compound 39, 4-(5-(4-cyanophenyl)imidazo[2,1-b][1,3,4]thiadiazol-2-yl)-N-(3-hydroxypropyl)benzamide], in experiment [2], the IC50 is under 50 nM and the inhibition at 1 µM was over 75%. In experiment [4], the IC50 is under 50 nM and the inhibition at 1 µM was over 75%.
